Results: article PMC8345219 (Cancers, 2021)
Entries after “also recorded” stand apart in the source; their conditions may differ. One block for each molecule: values may come before it. *1 amine or outer side, *2 acyl side, *3 side chain or, on linkers, in order; H or OH if unused. Where a SMILES comes first, the peptide text is derived from it. Bridges are numbered along the chain shown (N, C = ends). Primed or numbered codes have the meaning given here. Where no end group is shown, it is not given here. [ ]: non-standard residue; d: D form. The star is where a group is joined. Tam = 6-carboxy tetramethylrhodamine, CN(C)c1ccc2c(-c3cc(C(=O)*)ccc3C(=O)[O-])c3ccc(N(C)C)cc3[o+]c2c1; X1 = CN(C)c1ccc2c(c1)Oc1cc(N(C)C)ccc1C21OC(=O)c2ccc(C(=O)*)cc21; EG(4) = polyethylene glycol with four ethylene glycol units; hCys = N[C@@H](CCS)C(=O)O; CH2 = C([*:1])[*:2]

Legend:
[1] = Investigation of plasma stability (Tam-labeled peptides, RP-HPLC); assay type: in vitro ADME; conditions: Tam-modified peptides, 10^−5 M in human blood plasma, 37 °C; one-phase decay
Description: Investigation of peptide stability in blood plasma was carried out as described previously [22]. Tam-labeled peptides were dissolved in human blood plasma at a concentration of 10^−5 M and incubated at 37 °C and 250 rpm. Samples taken at the respective time points were added to a solution of 0.1% SDS in ACN/EtOH (1:1). After incubation at −20 °C for 20 min, the supernatant was transferred to a new tube and incubated again at −20 °C for at least 3 h. […] Peaks were integrated, and the peak containing the intact peptide was normalized to the sample taken at t = 0 min (100%). Plasma half-life was determined using one-phase decay in Prism 5 (GraphPad, San Diego, CA, USA).

hCMKLR1 = molecular target: T1, hCMKLR1 (Homo sapiens, UniProt Q99788); test: Calcium flux assay in COS-7 cells transfected with hCMKLR1_eYFP_GαΔ6qi4myr
T1 sequence (Q99788 1-373): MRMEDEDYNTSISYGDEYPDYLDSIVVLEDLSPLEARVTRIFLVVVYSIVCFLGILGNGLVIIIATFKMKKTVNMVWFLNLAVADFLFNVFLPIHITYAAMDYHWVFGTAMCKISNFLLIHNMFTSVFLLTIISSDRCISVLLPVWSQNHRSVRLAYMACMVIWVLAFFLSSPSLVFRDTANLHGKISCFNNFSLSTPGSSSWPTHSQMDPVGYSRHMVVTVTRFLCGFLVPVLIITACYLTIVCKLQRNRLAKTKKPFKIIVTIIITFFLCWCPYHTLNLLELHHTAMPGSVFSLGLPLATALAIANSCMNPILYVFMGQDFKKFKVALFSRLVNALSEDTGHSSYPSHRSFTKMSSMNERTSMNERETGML
Description: COS-7 cells were transfected in 75 cm^2 cell culture flasks with 12 µg of the hCMKLR1_eYFP_GαΔ6qi4myr_pV2 plasmid overnight using Metafectene Pro. Transfected cells were seeded in 96 well plates (100 µL cell suspension in DMEM + 10%FBS/well) and incubated overnight. […] All experiments were performed in triplicates, each experiment was repeated at least twice. Nonlinear regression was calculated using GraphPad Prism 5.

[2] = tested on: HEK293 cells stably transfected with CMKLR1-eYFP; test: Resazurin-based cell viability assay, HEK293-CMKLR1; conditions: HEK293-CMKLR1
Description: (§1) HEK293 cells stably transfected with CMKLR1-eYFP, empty HEK293 cells (15,000 cells in 100 µL suspension/well), or HMEC-1 cells (5000 cells in 100 µL suspension/well) in their respective cell culture media were seeded in 96 well plates (coated with poly D-lysine for HEK cells) and incubated at standard conditions overnight. Afterward, cells were incubated with peptides or MTX dissolved in cell culture media, and a medium without peptides was used as a control. […] Ethanol or media was removed and a 50 µL resazurin-based in vitro toxicology assay kit (Sigma-Aldrich, St. Lous, MO, USA) in cell culture media (1:10) was added to each well. After 1 h incubation time, the conversion of the resazurin was detected by measuring the fluorescence intensity at λem = 590 nm. All experiments were performed in duplicates and each experiment was repeated at least three times. Nonlinear regression was calculated using GraphPad Prism 5, curves were normalized to untreated and ethanol-treated cells.

[3] = tested on: untransfected HEK293 cells; test: Resazurin-based cell viability assay, untransfected HEK293; conditions: HEK293 cells devoid of CMKLR1, 72 h
Description: as §1

human blood plasma = conditions: 37 °C, up to 24 h
[4] = tested on: HEK293 cells stably transfected with CMKLR1-eYFP; test: Quantification of peptide uptake using a High Content Imager; assay type: cell-based; conditions: 1 µM Tam-labeled peptide, up to 1 h
Description: Cells were stimulated with 1 µM of the respective, Tam-labeled peptide for the specified periods, followed by washing with acidic wash (50 mM glycine, 100 mM NaCl, pH 3) in HBSS. Microscopy was carried out in OptiMEM using an ImageXpress Micro Confocal High-Content Imaging System (Molecular Devices, San José, CA, USA), using the appropriate filters for the respective fluorophores (Table 1). The fluorescence intensity per cell was automatically analyzed for each well by a module detecting the nuclei (5–30 µm in diameter and 100 gray levels above background) and the granules by Tam-peptide fluorescence (2–5 µm in diameter, 70 gray levels above background).

[5] = molecular target: chemokine-like receptor 1 fused to eYFP (hCMKLR1-eYFP) (human) (UniProt Q99788)
[6] = molecular target: chemokine-like receptor 1 fused to eYFP (hCMKLR1-eYFP) (human) (UniProt Q99788); remark: listed apart in the source
[7] = EC50, Ca^2+ flux, normalized to chemerin-9 curve

Molecule: C[C@@H]1NC(=O)[C@H](Cc2ccccc2)NC(=O)[C@H](CCC(N)=O)NC(=O)[C@H](NC(=O)[C@@H]2CCCN2C(=O)[C@H](Cc2ccccc2)NC(=O)[C@@H](N)Cc2ccc(O)cc2)CSSC[C@@H](C(=O)O)NC(=O)[C@H](Cc2ccccc2)NC1=O [Compound 4, YFP(cQFAFC)] (H-YFP[dC]QFAFC-OH; disulfide 4-9)
EC50 (hCMKLR1; pEC50 ± SEM, Ca^2+ flux): 64.3 nM

Molecule: C[C@@H]1NC(=O)[C@H](Cc2ccccc2)NC(=O)[C@H](CCC(N)=O)NC(=O)[C@H](NC(=O)[C@@H]2CCCN2C(=O)[C@H](Cc2ccccc2)NC(=O)[C@@H](N)Cc2ccc(O)cc2)CSCSC[C@@H](C(=O)O)NC(=O)[C@H](Cc2ccccc2)NC1=O [Compound 5, YFP(c(CH2)QFAFC)] (H-YFP[dC]QFAFC-OH; linker 4-9 via CH2)
EC50 (hCMKLR1; [7]): 13 nM
EC50 (hCMKLR1; pEC50 ± SEM, Ca^2+ flux): 12.9 nM

Molecule: C[C@@H]1NC(=O)[C@H](Cc2ccccc2)NC(=O)[C@H](CCC(N)=O)NC(=O)[C@H](NC(=O)[C@@H]2CCCN2C(=O)[C@H](Cc2ccccc2)NC(=O)[C@@H](N)Cc2ccc(O)cc2)CSCSCC[C@@H](C(=O)O)NC(=O)[C@H](Cc2ccccc2)NC1=O [Compound 6, YFP(c(CH2)QFAFX)] (H-YFP[dC]QFAF[hCys]-OH; linker 4-9 via CH2)
EC50 (hCMKLR1; [7]): 37 nM
EC50 (hCMKLR1; pEC50 ± SEM, Ca^2+ flux): 37.2 nM

Molecule: CN(C)c1ccc2c(c1)Oc1cc(N(C)C)ccc1C21OC(=O)c2ccc(C(=O)NCCCC[C@@H]3NC(=O)[C@H](Cc4ccccc4)NC(=O)[C@H](CCC(N)=O)NC(=O)[C@H](NC(=O)[C@@H]4CCCN4C(=O)[C@H](Cc4ccccc4)NC(=O)[C@@H](N)Cc4ccc(O)cc4)CSSC[C@@H](C(=O)O)NC(=O)[C@H](Cc4ccccc4)NC3=O)cc21 [Compound 7T, YFP(cQFK(Tam)FC)] (H-YFP[dC]QFK(X1)FC-OH; disulfide 4-9)
half-life [1]: < 12 min

Molecule: CN(C)c1ccc2c(c1)Oc1cc(N(C)C)ccc1C21OC(=O)c2ccc(C(=O)NCCCC[C@@H]3NC(=O)[C@H](Cc4ccccc4)NC(=O)[C@H](CCC(N)=O)NC(=O)[C@H](NC(=O)[C@@H]4CCCN4C(=O)[C@H](Cc4ccccc4)NC(=O)[C@H](N)Cc4ccc(O)cc4)CSSC[C@@H](C(=O)O)NC(=O)[C@H](Cc4ccccc4)NC3=O)cc21 [Compound 8T, yFP(cQFK(Tam)FC)] (H-[dY]FP[dC]QFK(X1)FC-OH; disulfide 4-9)
half-life [1]: > 1440 min

Molecule: C[C@@H]1NC(=O)[C@H](Cc2ccccc2)NC(=O)[C@H](CCC(N)=O)NC(=O)[C@H](NC(=O)[C@@H]2CCCN2C(=O)[C@H](Cc2ccccc2)NC(=O)[C@H](N)Cc2ccc(O)cc2)CSCSCC[C@@H](C(=O)O)NC(=O)[C@H](Cc2ccccc2)NC1=O [Compound 10, yFP(c(CH2)QFAFX)] (H-[dY]FP[dC]QFAF[hCys]-OH; linker 4-9 via CH2)
EC50 (hCMKLR1; [7]): 28 nM
EC50 (hCMKLR1; pEC50 ± SEM, Ca^2+ flux): 28 nM

Molecule: Mtx-GFLGK(Ac)YFP(xQFAFC) [Compound 15]
increase in toxicity compared to MTX itself [2]: almost eightfold increase in toxicity
toxicity (in words) [3]: exerted no toxicity; also recorded: not toxic at concentrations up to 10 µM

Molecule: Tam-EG(4)-YFP(xQFAFC)
not cleaved (human blood plasma): not degraded in blood plasma for at least 24 h; t1/2 >48 h

Molecule: Tam-EG(4)-YFPGQFAAS ({Tam-EG(4)}-YFPGQFAAS) [Compound 13T, alanine-substituted Tam-labeled linear peptide, negative control]
intracellular accumulation of Tam-fluorescence over time [4]: did not accumulate in the cells

Molecule: Tam-YFP(c(CH2)QFAFC)
not cleaved (human blood plasma): same stability for 24 h; t1/2 >24 h

Molecule: Tam-YFP(c(CH2)QFAFX)
not cleaved (human blood plasma): same stability for 24 h; t1/2 >24 h

Molecule: Tam-YFP(cQFAFC) (X1-YFP[dC]QFAFC-OH; disulfide 4-9)
not cleaved (human blood plasma): remained completely intact for the course of the experiment (24 h); t1/2 >24 h

Molecule: methotrexate conjugate 15, Mtx-GFLGK(Ac)YFP(xQFAFC) (peptide)
toxicity in a resazurin-based cell viability assay, HEK293 cells stably transfected with CMKLR1-eYFP, 72 h, IC50 (no toxicity on HEK293 cells devoid of CMKLR1 up to 10 µM) [5]: 61 nM
toxicity in a resazurin-based cell viability assay, HMEC-1 cells endogenously expressing CMKLR1, 72 h, IC50 [6]: 2000 nM

Molecule: yFP(cQFK(Tam)FC)
not cleaved (human blood plasma): fully stable in blood plasma for 24 h; t1/2 >24 h

The next lines start with the values.

half-life [1]: 45 min
Molecule: CN(C)c1ccc2c(c1)Oc1cc(N(C)C)ccc1C21OC(=O)c2ccc(C(=O)N[C@@H](Cc3ccc(O)cc3)C(=O)N[C@@H](Cc3ccccc3)C(=O)N3CCC[C@H]3C(=O)N[C@@H]3CSSC[C@@H](C(=O)N[C@@H](Cc4ccccc4)C(=O)N[C@@H](CO)C(=O)O)NC(=O)[C@H](Cc4ccccc4)NC(=O)[C@H](CCC(N)=O)NC3=O)cc21 [Compound 2T, Tam-YFP(cQFCFS)] (X1-YFP[dC]QFCFS-OH; disulfide 4-7)

half-life [1]: 18 min
Molecule: CN(C)c1ccc2c(c1)Oc1cc(N(C)C)ccc1C21OC(=O)c2ccc(C(=O)N[C@@H](Cc3ccc(O)cc3)C(=O)N[C@@H](Cc3ccccc3)C(=O)N3CCC[C@H]3C(=O)N[C@@H]3CSCSC[C@@H](C(=O)N[C@@H](Cc4ccccc4)C(=O)N[C@@H](CO)C(=O)O)NC(=O)[C@H](Cc4ccccc4)NC(=O)[C@H](CCC(N)=O)NC3=O)cc21 [Compound 3T, Tam-YFP(c(CH2)QFCFS)] (X1-YFP[dC]QFCFS-OH; linker 4-7 via CH2)

half-life [1]: > 1440 min
Molecule: C[C@@H]1NC(=O)[C@H](Cc2ccccc2)NC(=O)[C@H](CCC(N)=O)NC(=O)[C@H](NC(=O)[C@@H]2CCCN2C(=O)[C@H](Cc2ccccc2)NC(=O)[C@H](Cc2ccc(O)cc2)NC(=O)c2ccc3c(c2)C2(OC3=O)c3ccc(N(C)C)cc3Oc3cc(N(C)C)ccc32)CSSC[C@@H](C(=O)O)NC(=O)[C@H](Cc2ccccc2)NC1=O [Compound 4T, Tam-YFP(cQFAFC)] (X1-YFP[dC]QFAFC-OH; disulfide 4-9)

half-life [1]: > 1440 min
Molecule: C[C@@H]1NC(=O)[C@H](Cc2ccccc2)NC(=O)[C@H](CCC(N)=O)NC(=O)[C@H](NC(=O)[C@@H]2CCCN2C(=O)[C@H](Cc2ccccc2)NC(=O)[C@H](Cc2ccc(O)cc2)NC(=O)c2ccc3c(c2)C2(OC3=O)c3ccc(N(C)C)cc3Oc3cc(N(C)C)ccc32)CSCSC[C@@H](C(=O)O)NC(=O)[C@H](Cc2ccccc2)NC1=O [Compound 5T, Tam-YFP(c(CH2)QFAFC)] (X1-YFP[dC]QFAFC-OH; linker 4-9 via CH2)

half-life [1]: > 1440 min
Molecule: C[C@@H]1NC(=O)[C@H](Cc2ccccc2)NC(=O)[C@H](CCC(N)=O)NC(=O)[C@H](NC(=O)[C@@H]2CCCN2C(=O)[C@H](Cc2ccccc2)NC(=O)[C@H](Cc2ccc(O)cc2)NC(=O)c2ccc3c(c2)C2(OC3=O)c3ccc(N(C)C)cc3Oc3cc(N(C)C)ccc32)CSCSCC[C@@H](C(=O)O)NC(=O)[C@H](Cc2ccccc2)NC1=O [Compound 6T, Tam-YFP(c(CH2)QFAFX)] (X1-YFP[dC]QFAF[hCys]-OH; linker 4-9 via CH2)
